Key:
Format in all cases: binding
PCSK9 [1] = target: T1, PCSK9 (Homo sapiens, UniProt Q8NBP7); test: PCSK9 Alexa FRET Standard TR-FRET assay; details: biotinylated PCSK9 0.5 nM, 20 nM AF cyclic peptide Reagent A; Ki calculated from IC50 and KD of AF peptide; read-out: Alexa FRET Stdt TR-FRET
T1 construct: biotin (biotinylated); purchased
Protocol: (§1) The following is a description of the assays used to determine activity of compounds of the invention, and any comparator compounds reported, toward PCSK9 antagonism. Biotinylated PCSK9 was obtained commercially.
A separate solution containing 40 nM of the AlexaFluor tagged cyclic peptide is made in the same buffer system. An Echo is used to transfer 0.750 ul of compound to an assay plate followed by the addition of 15 ul of PCSK9+Stept-Eu and 15 ul of AF peptide. […] The reaction is incubated at room temperature for at least two hours prior to fluorescence measurements using an Envision Multilabel Reader. IC50 values are determined by fitting data to a sigmoidal dose-response curve using nonlinear regression. Ki is then calculated from the Ic50 and the KD of AF cyclic peptide. Counts (B-counts) of the europium-labeled PCSK9 are followed to observe if compounds are adversely PCSK9. A fall off of the B-counts likely indicates a false positive of inhibition. Data from this procedure is reported as “A=‘numerical value’ (nanomolar)”

PCSK9 [2] = target: T1, PCSK9; test: PCSK9 Alexa FRET Plus TR-FRET assay; details: biotinylated PCSK9 0.5 nM, 960 nM AF cyclic peptide Reagent B; Ki calculated from IC50 and KD of AF peptide
Protocol: as §1
An Echo is used to transfer 0.075 ul of compound plus 0.675 ul of DMSO to each well of an assay plate followed by the addition of 15 ul of PCSK9+Stept-Eu and 15 ul of AF peptide. […] The reaction is incubated at room temperature for at least two hours prior to fluorescence measurements using an Envision Multilabel Reader. IC50 values are determined by fitting data to a sigmoidal dose-response curve using nonlinear regression. Ki is then calculated from the Ic50 and the KD of AF cyclic peptide. Counts (B-counts) of the europium-labeled PCSK9 are followed to observe if compounds are adversely affecting PCSK9. […] Data from this procedure is reported as “P=‘numerical value’ (nanomolar)”

PCSK9 [3] = target: T1, PCSK9; test: PCSK9 Alexa FRET Ultra TR-FRET assay
Protocol: The following is a description of the assays used to determine activity of compounds of the invention, and any comparator compounds reported, toward PCSK9 antagonism. Biotinylated PCSK9 was obtained commercially. […] An Echo is used to transfer 0.015 ul of compound plus 0.735 ul of DMSO to each well of an assay plate followed by the addition of 15 ul of PCSK9+Stept-Eu and 15 ul of AF peptide. […] The reaction is incubated at room temperature for at least two hours prior to fluorescence measurements using an Envision Multilabel Reader. IC50 values are determined by fitting data to a sigmoidal dose-response curve using nonlinear regression. Ki is then calculated from the Ic50 and the KD of AF cyclic peptide. Counts (B-counts) of the europium-labeled PCSK9 are followed to observe if compounds are adversely affecting PCSK9. […] Data from this procedure is reported as “Ki Ultra=‘numerical value’ (data reported is nanomolar)”

[4] = Ki Ultra, biotinylated PCSK9 0.5 nM, 960 nM AF cyclic peptide, Ki calculated from IC50 and KD of AF peptide, read-out: Alexa FRET Ultra TR-FRET

T1 sequence (Q8NBP7 153-692): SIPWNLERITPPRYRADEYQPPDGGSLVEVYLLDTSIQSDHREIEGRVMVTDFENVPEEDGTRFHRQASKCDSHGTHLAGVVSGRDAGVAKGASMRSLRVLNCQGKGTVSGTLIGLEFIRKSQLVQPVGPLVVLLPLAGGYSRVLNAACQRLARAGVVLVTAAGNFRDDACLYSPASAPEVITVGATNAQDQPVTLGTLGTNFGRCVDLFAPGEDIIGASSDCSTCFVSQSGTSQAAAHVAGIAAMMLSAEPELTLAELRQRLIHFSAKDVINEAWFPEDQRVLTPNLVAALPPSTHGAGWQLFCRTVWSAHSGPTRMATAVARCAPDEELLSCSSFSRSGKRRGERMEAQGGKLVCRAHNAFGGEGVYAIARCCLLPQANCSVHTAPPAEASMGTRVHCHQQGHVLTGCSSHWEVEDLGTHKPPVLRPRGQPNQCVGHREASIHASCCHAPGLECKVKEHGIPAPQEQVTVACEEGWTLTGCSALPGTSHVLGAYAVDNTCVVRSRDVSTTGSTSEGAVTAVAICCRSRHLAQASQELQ

Row | Structure (SMILES) | Ki (PCSK9 [1]) | Ki (PCSK9 [2]) | Ki (PCSK9 [3]) | Ki (PCSK9 [3]; [4])
1 | COc1ccc(C[C@@H]2NC(=O)[C@H]([C@@H](C)OCc3cn(CCNC(=O)COCCOCCNC(=O)COCCOCCNC(=O)CC[C@H](NC(=O)CCCCCCCCCCCCCCCCC(=O)O)C(=O)O)nn3)NC(=O)[C@@H]3[C@@H]4CCN3C(=O)[C@@H]3Cc5cn(c6ccc(F)cc56)CCCCCCN(Cc5ccc(cc5)CCNC(=O)[C@]5(C)CCCN5C2=O)C(=O)CCC(=O)N[C@@H](C)C(=O)N[C@H](CNC(=O)CCOCCOCC[N+](C)(C)C)C(=O)N[C@@H](Cc2cccc(c2)CNC(=O)CO4)C(=O)N3)cc1 [Example 8] | < 1.26 nM | < 0.006 nM | 0.006 nM | 
2 | COc1ccc(C[C@@H]2NC(=O)[C@H]([C@@H](C)O)NC(=O)[C@@H]3[C@@H]4CCN3C(=O)[C@@H]3Cc5cn(c6ccc(F)cc56)Cc5cn(nn5)Cc5cc(ccc5CNC(=O)CCCCCC(=O)N[C@H](CNC(=O)COCCOCC[N+](C)(C)CCNC(=O)COCCOCCNC(=O)COCCOCCNC(=O)CCC(NC(=O)CCCCCCCCOCCCCCCCCC(=O)O)C(=O)O)C(=O)N[C@@H](Cc5cccc(c5)C/C=C/CO4)C(=O)N3)CCNC(=O)[C@]3(C)CCCN3C2=O)cc1 (some centres unmarked) [Example 2] | < 1.26 nM | 0.024 nM |  | 0.14 nM
3 | COc1ccc(C[C@@H]2NC(=O)[C@H]([C@@H](C)O)NCC(=O)[C@@H]3[C@@H]4CCN3C(=O)[C@@H]3Cc5cn(c6ccc(F)cc56)Cc5cn(nn5)Cc5cc(ccc5CNC(=O)CCCCCC(=O)N[C@H](CNC(=O)CCOCCOCC[N+](C)(C)CCOCCNC(=O)COCCOCCNC(=O)COCCOCCNC(=O)CC[C@H](NC(=O)CC[C@H](NC(=O)CCCCCCCCCCCCCCC(=O)O)C(=O)O)C(=O)O)C(=O)N[C@@H](Cc5cccc(c5)C/C=C/CO4)C(=O)N3)CCNC(=O)[C@]3(C)CCCN3C2=O)cc1 [Example 4] | < 1.26 nM | 0.037 nM |  | 0.16 nM
4 | COc1ccc(C[C@@H]2NC(=O)[C@H]([C@@H](C)OCc3cn(CCNC(=O)CCOCCOCC[N+](C)(C)C)nn3)NC(=O)[C@@H]3[C@@H]4CCN3C(=O)[C@@H]3Cc5cn(c6ccc(F)cc56)CCCCCCN(Cc5ccc(cc5)CCNC(=O)[C@]5(C)CCCN5C2=O)C(=O)CCC(=O)N[C@@H](C)C(=O)N[C@H](CNC(=O)COCCOCCNC(=O)COCCOCCNC(=O)CC[C@H](NC(=O)CCCCCCCCCCCCCCCCC(=O)O)C(=O)O)C(=O)N[C@@H](Cc2cccc(c2)CNC(=O)CO4)C(=O)N3)cc1 [Example 7] | < 1.26 nM | < 0.006 nM |  | 0.004 nM
5 | COc1ccc(C[C@@H]2NC(=O)[C@H]([C@@H](C)O)NC(=O)[C@@H]3[C@@H]4CCN3C(=O)[C@@H]3Cc5cn(c6ccc(F)cc56)CCCCCCN(Cc5ccc(cc5)CCNC(=O)[C@]5(C)CCCN5C2=O)C(=O)CCCCCC(=O)N[C@H](CNC(=O)CCOCCOCC[N+](C)(C)CCNC(=O)COCCOCCNC(=O)COCCOCCNC(=O)CC[C@H](NC(=O)CCCCCCCCCCCCCCC(=O)O)C(=O)O)C(=O)N[C@@H](Cc2cccc(c2)CNC(=O)CO4)C(=O)N3)cc1 [Example 13] | < 1.26 nM | < 0.006 nM |  | 
6 | COc1ccc(C[C@@H]2NC(=O)[C@H]([C@@H](C)O)NC(=O)[C@@H]3[C@@H]4CCN3C(=O)[C@@H]3Cc5cn(c6ccc(F)cc56)Cc5cn(nn5)Cc5cc(ccc5CNC(=O)CCCCCC(=O)N[C@H](CNC(=O)COCCOCCNC(=O)CC[C@H](NC(=O)CCOCCOCC[N+](C)(C)CCNC(=O)COCCOCCNC(=O)COCCOCCNC(=O)CCC(NC(=O)CCCCCCCCCCCCCCCCC(=O)O)C(=O)O)C(=O)O)C(=O)N[C@@H](Cc5cccc(c5)C/C=C/CO4)C(=O)N3)CCNC(=O)[C@]3(C)CCCN3C2=O)cc1 (some centres unmarked) [Example 1] | < 1.26 nM | 0.205 nM |  | 0.488 nM
7 | COc1ccc(C[C@@H]2NC(=O)[C@H]([C@@H](C)Oc3cn(CCNC(=O)CCOCCOCC[N+](C)(C)CCNC(=O)COCCOCCNC(=O)COCCOCCNC(=O)CCC(NC(=O)CC[C@H](NC(=O)CCCCCCCCCCCCCCCCC(=O)O)C(=O)O)C(=O)O)nn3)NC(=O)[C@@H]3[C@@H]4CCN3C(=O)[C@@H]3Cc5cn(c6ccc(F)cc56)CCCCCCN(Cc5ccc(cc5)CCNC(=O)[C@]5(C)CCCN5C2=O)C(=O)CCC(=O)N[C@@H](C)C(=O)N[C@H](CNC(=O)CCOCCOCC[N+](C)(C)C)C(=O)N[C@@H](Cc2cccc(c2)C/C=C/CO4)C(=O)N3)cc1 (some centres unmarked) [Example 9] | < 1.26 nM | < 0.006 nM | 0.003 nM | 
8 | COc1ccc(C[C@@H]2NC(=O)[C@H]([C@@H](C)O)NC(=O)[C@@H]3[C@@H]4CCN3C(=O)[C@@H]3Cc5cn(c6ccc(F)cc56)CCCCCCN(Cc5ccc(cc5)CCNC(=O)[C@]5(C)CCCN5C2=O)C(=O)CCOCCC(=O)N[C@H](CNC(=O)CCOCCOCC[N+](C)(C)CCNC(=O)COCCOCCNC(=O)COCCOCCNC(=O)CC[C@H](NC(=O)CC[C@H](NC(=O)CCCCCCCCCCCCCCC(=O)O)C(=O)O)C(=O)O)C(=O)N[C@@H](Cc2cccc(c2)CNC(=O)CO4)C(=O)N3)cc1 [Example 12] | < 1.26 nM | < 0.006 nM |  | 0.002 nM
9 | COc1ccc(C[C@@H]2NC(=O)[C@H]([C@@H](C)O)NC(=O)[C@@H]3[C@@H]4CCN3C(=O)[C@@H]3Cc5cn(c6ccc(F)cc56)CCCCCCN(Cc5ccc(cc5)CCNC(=O)[C@]5(C)CCCN5C2=O)C(=O)CCOCCC(=O)N[C@H](CNC(=O)CCOCCOCC[N+](C)(C)CCNC(=O)COCCOCCNC(=O)COCCOCCNC(=O)CCC(NC(=O)CCCCCCCCCCCCCCC(=O)O)C(=O)O)C(=O)N[C@@H](Cc2cccc(c2)CNC(=O)CO4)C(=O)N3)cc1 (some centres unmarked) [Example 11] | < 1.26 nM | < 0.006 nM |  | 0.001 nM
10 | COc1ccc(C[C@@H]2NC(=O)[C@H]([C@@H](C)O)NC(=O)[C@@H]3[C@@H]4CCN3C(=O)[C@@H]3Cc5cn(c6ccc(F)cc56)CCCCCCN(Cc5ccc(cc5)CCNC(=O)[C@]5(C)CCCN5C2=O)C(=O)CCOCCC(=O)N[C@H](CNC(=O)CCOCCOCC[N+](C)(C)CCNC(=O)COCCOCCNC(=O)COCCOCCNC(=O)CC[C@H](NC(=O)CC[C@H](NC(=O)CCCCCCCCCCCCCCCCC(=O)O)C(=O)O)C(=O)O)C(=O)N[C@@H](Cc2cccc(c2)CNC(=O)CO4)C(=O)N3)cc1 [Example 10] | < 1.26 nM | < 0.006 nM | 0.004 nM | 
11 | COc1ccc(C[C@@H]2NC(=O)[C@H]([C@@H](C)O)NC(=O)[C@@H]3[C@@H]4CCN3C(=O)[C@@H]3Cc5cn(c6ccc(F)cc56)Cc5cn(nn5)Cc5cc(ccc5CNC(=O)CCCCCC(=O)N[C@H](CNC(=O)CCOCCOCC[N+](C)(C)CCNC(=O)COCCOCCNC(=O)COCCOCCNC(=O)CC[C@H](NC(=O)CC[C@H](NC(=O)CCCCCCCCCCCCCCCCC(=O)O)C(=O)O)C(=O)O)C(=O)N[C@@H](Cc5cccc(c5)C/C=C/CO4)C(=O)N3)CCNC(=O)[C@]3(C)CCCN3C2=O)cc1 [Example 6] | < 1.26 nM | 0.049 nM |  | 0.36 nM
12 | COc1ccc(C[C@@H]2NC(=O)[C@H]([C@@H](C)O)NC(=O)[C@@H]3[C@@H]4CCN3C(=O)[C@@H]3Cc5cn(c6ccc(F)cc56)Cc5cn(nn5)Cc5cc(ccc5CNC(=O)CCCCCC(=O)N[C@H](CNC(=O)CCOCCOCC[N+](C)(C)CCNC(=O)COCCOCCNC(=O)COCCOCCNC(=O)CC[C@H](NC(=O)CCCCCCCCCCCCCCC(=O)O)C(=O)O)C(=O)N[C@@H](Cc5cccc(c5)C/C=C/CO4)C(=O)N3)CCNC(=O)[C@]3(C)CCCN3C2=O)cc1 [Example 5] | < 1.26 nM | 0.036 nM |  | 0.13 nM
13 | COc1ccc(C[C@@H]2NC(=O)[C@H]([C@@H](C)O)NC(=O)[C@@H]3[C@@H]4CCN3C(=O)[C@@H]3Cc5cn(c6ccc(F)cc56)Cc5cn(nn5)Cc5cc(ccc5CNC(=O)CCCCCC(=O)N[C@H](CNC(=O)CCOCCOCC[N+](C)(C)CCNC(=O)COCCOCCNC(=O)COCCOCCNC(=O)CC[C@@H](NC(=O)CC[C@@H](NC(=O)CCCCCCCCCCCCCCCCC(=O)O)C(=O)O)C(=O)O)C(=O)N[C@@H](Cc5cccc(c5)C/C=C/CO4)C(=O)N3)CCNC(=O)[C@]3(C)CCCN3C2=O)cc1 [Example 3] | < 1.26 nM | 0.082 nM |  | 0.43 nM

From patent US12577259B2, “PCSK9 antagonist compounds” (MERCK SHARP & DOHME LLC, priority 2019, dated 2026)
